Measurements published in patent US20180092923A1, “METHODS FOR TREATING LYSOSOMAL STORAGE DISORDERS” (BIOMARIN PHARMACEUTICAL INC., priority 2015, published 2018).

System: GM01896 cells
Experiment: MPS II cellular assay
Type: cell-based
Details: Homo sapiens, Fibroblast; dermal fibroblasts from an individual with MPS II (GM01896); heparan sulfate disaccharide I2a4, I2a6, I2S0 and/or I2S6 detected by LC-MS
Protocol: Dermal fibroblasts from humans with an MPS disorder and from healthy donors were grown. Cells were expanded and kept in culture for analysis.
Human foreskin fibroblasts are obtained from the American Type Culture Collection (CRL-1634). […] Sulfamidase activity in cell extracts is measured with 4-methylumbelliferyl-α-D-N-sulfoglucosaminide according the vendors instructions substituting Tris-acetate buffer (pH 6.5; Moscerdam). […]
Cell monolayers are washed with phosphate buffered saline and detached by treatment with GIBCO trypsin-EDTA solution (Invitrogen). […] The amount of protein is determined by bicinchoninic acid (BCA assay, Thermo Scientific). […]
Enzymatically depolymerized GAG preparations are differentially mass labeled by reductive amination with [^12C6]aniline. […] Samples are then analyzed by LC-MS using an LTQ Orbitrap Discovery electrospray ionization mass spectrometer (Thermo Scientific) equipped with quaternary HPLC pump (Finnigan Surveyor MS pump) and a reverse-phase capillary column.
For MPS II, GM01896 cells were treated with a compound described herein and the heparan sulfate disaccharide detected was [^12C6]aniline-tagged I2a4, I2a6, I2S0 and/or I2S6. […] Cell viability was monitored using alamar blue or ATP quantification. IC50's were calculated using curve fitting within the ChemInnovation CBIS database system.

Cc1cccc(/C=N/Nc2cc(N3CCOCC3)nc(OCCc3ccccn3)n2)c1 [Compound 11, (E)-4-(6-(2-(3-methylbenzylidene)hydrazinyl)-2-(2-(pyridin-2-yl)ethoxy)pyrimidin-4-yl)morpholine]
IC50: 170 nM
